Experiments:
LXRβ = LXRβ (Homo sapiens, UniProt P55055); test: AlphaScreen nuclear receptor activation; format: biochemical
PXR = biological target: T1, PXR (Homo sapiens, UniProt O75469); test: AlphaScreen nuclear receptor activation; format: biochemical
T1 sequence (O75469 1-434): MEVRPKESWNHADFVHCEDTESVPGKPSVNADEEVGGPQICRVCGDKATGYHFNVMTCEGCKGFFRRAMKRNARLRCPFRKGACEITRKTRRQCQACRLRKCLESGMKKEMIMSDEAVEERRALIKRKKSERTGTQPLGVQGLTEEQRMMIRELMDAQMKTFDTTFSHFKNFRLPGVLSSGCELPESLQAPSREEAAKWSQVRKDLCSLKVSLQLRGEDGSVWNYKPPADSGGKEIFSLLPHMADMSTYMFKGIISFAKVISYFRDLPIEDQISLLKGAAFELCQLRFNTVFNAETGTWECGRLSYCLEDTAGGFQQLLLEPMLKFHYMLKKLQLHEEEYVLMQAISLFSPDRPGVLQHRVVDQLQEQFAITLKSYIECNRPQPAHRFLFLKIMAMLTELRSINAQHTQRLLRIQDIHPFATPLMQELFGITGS

CAR = CAR (Homo sapiens, UniProt Q14994); test: AlphaScreen nuclear receptor activation; format: biochemical
PPARα = PPARα (Homo sapiens, UniProt Q07869); test: AlphaScreen nuclear receptor activation; format: biochemical
PPARδ = PPARδ (Homo sapiens, UniProt Q03181); test: AlphaScreen nuclear receptor activation; format: biochemical
PPARγ = PPARγ (Homo sapiens, UniProt P37231); test: AlphaScreen nuclear receptor activation; format: biochemical
RARα = RARα (Homo sapiens, UniProt P10276); test: AlphaScreen nuclear receptor activation; format: biochemical
VDR = VDR (Homo sapiens, UniProt P11473); test: AlphaScreen nuclear receptor activation; format: biochemical
TR = test: AlphaScreen nuclear receptor activation; format: biochemical
PR = PR (Homo sapiens, UniProt P06401); test: AlphaScreen nuclear receptor activation; format: biochemical
RXR = test: AlphaScreen nuclear receptor activation; format: biochemical
GR = GR (Homo sapiens, UniProt P04150); test: AlphaScreen nuclear receptor activation; format: biochemical
FXR target genes = test: Quantitative RT-PCR of FXR target genes in HepG2 cells; format: cell-based, human; settings: 1 μM, overnight
[1] = Critical micellar concentration; format: physicochemical; settings: […] NaCl water solution
Surface tension at CMC = format: physicochemical; settings: […] NaCl water solution
HepG2 cells = test: cells; settings: Homo sapiens, HepG2, read-out: Membrane integrity EC50 (μM) (LDH measure)
physchem = settings: water
CYP1A2 = biological target: T2, CYP1A2 (Homo sapiens, UniProt P05177); test: biochemical
T2 sequence (P05177 1-516): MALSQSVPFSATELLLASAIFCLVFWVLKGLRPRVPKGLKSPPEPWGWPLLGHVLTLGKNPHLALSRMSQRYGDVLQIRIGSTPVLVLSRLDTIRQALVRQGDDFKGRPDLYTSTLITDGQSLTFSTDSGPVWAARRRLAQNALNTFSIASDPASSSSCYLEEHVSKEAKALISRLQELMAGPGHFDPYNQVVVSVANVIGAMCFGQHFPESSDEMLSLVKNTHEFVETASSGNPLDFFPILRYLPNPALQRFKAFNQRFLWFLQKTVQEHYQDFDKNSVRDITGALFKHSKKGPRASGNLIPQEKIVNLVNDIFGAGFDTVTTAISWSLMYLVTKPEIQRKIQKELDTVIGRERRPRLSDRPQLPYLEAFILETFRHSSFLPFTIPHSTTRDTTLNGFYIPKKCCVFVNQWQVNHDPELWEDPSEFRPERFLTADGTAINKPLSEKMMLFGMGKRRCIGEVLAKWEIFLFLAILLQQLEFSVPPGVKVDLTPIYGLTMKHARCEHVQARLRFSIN

CYP3A4 [2] = biological target: T3, CYP3A4 (Homo sapiens, UniProt P08684); test: biochemical
CYP2C9 = CYP2C9 (Homo sapiens, UniProt P11712); test: biochemical
CYP2C19 = CYP2C19 (Homo sapiens, UniProt P33261); test: biochemical
CYP2D6 = CYP2D6 (Homo sapiens, UniProt P10635); test: biochemical
CYP2E1 = CYP2E1 (Homo sapiens, UniProt P05181); test: biochemical
hERG potassium channel = hERG potassium channel (Homo sapiens, UniProt Q12809); test: PREDICTOR hERG Fluorescence Polarization assay; settings: CHO-hERG membrane preparations
[3] = 1-octanol-water partition coefficient (LogPA-); settings: ionized species
CYP3A4 [4] = biological target: T3, CYP3A4; test: CYP450 inhibition, recombinant baculosomes, fluorescent signal; settings: read-out: CYP3A4 (Green Substrate) IC50

CC[C@H]1[C@@H](O)[C@@H]2[C@H](CC[C@]3(C)[C@@H]([C@H](C)CCC(=O)O)CC[C@@H]23)[C@@]2(C)CC[C@@H](O)C[C@@H]12 [Compound A, 6α-ethyl-3α,7α-dihydroxy-5β-cholan-24-oic acid]
up: APOCII gene expression (FXR target genes) | BSEP gene expression (FXR target genes) | FGF-19 gene expression (FXR target genes) | MRP2 gene expression (FXR target genes) | OSTα gene expression (FXR target genes) | OSTβ gene expression (FXR target genes) | PEPCK gene expression (FXR target genes) | PLTP gene expression (FXR target genes) | PPARγ gene expression (FXR target genes) | SHP gene expression (FXR target genes) | UGT2B4 gene expression (FXR target genes)
2.5: LogPA−(d) 1-octanol-water partition coefficient [3]
does not block or inhibit: block or inhibition of the hERG potassium channel (hERG potassium channel)
No activity: LXRβ Activation EC50 (μM) (LXRβ) | PXR Activation EC50 (μM) (PXR) | CAR Activation EC50 (μM) (CAR) | PPARα Activation EC50 (μM) (PPARα) | PPARδ Activation EC50 (μM) (PPARδ) | PPARγ Activation EC50 (μM) (PPARγ) | RARα Activation EC50 (μM) (RARα) | VDR Activation EC50 (μM) (VDR) | TR Activation EC50 (μM) (TR) | PR Activation EC50 (μM) (PR) | RXR Activation EC50 (μM) (RXR) | GR Activation EC50 (μM) (GR) | ER Activation EC50 (μM) (ER)
2.9 mM: CMC(b) (mM) Critical Micellar Concentration [1]
down: CYP7α1 gene expression (FXR target genes) | SREBP-1C gene expression (FXR target genes)
190 ± 30 µM: EC50 (HepG2 cells)
> 10 µM: IC50 (CYP1A2) | IC50 (CYP3A4 [2]) | IC50 (CYP2C9) | IC50 (CYP2C19) | IC50 (CYP2D6) | IC50 (CYP2E1) | IC50 (CYP3A4 [4])
43.2-48.8 Dyne/cm: STCMC(c) (Dyne/cm) Surface Tension at CMC (Surface tension at CMC)
9 µM: solubility (physchem)
